In ChEMBL document CHEMBL5465560, “Selectivity Literature for EUbOPEN Chemogenomic Library” (2024):

What was measured:
[1] = molecular target: T1, Ribosomal protein S6 kinase alpha-1 (Homo sapiens, UniProt Q15418); experiment: Selectivity interaction (Kinase panel (KiNativ target engagement assay in Jurkat cells)) EUB0001635a RPS6KA1; format: cell-based; conditions: Selectivity number of off-targets 0.0, Selectivity number of targets 233.0, Source Knowledge https://www.sciencedirect.com/science/article/pii/S2451945619300674?via%3Dihub, at 1 µM
[2] = molecular target: Histone acetyltransferase p300 (Homo sapiens) (UniProt Q09472); experiment: Selectivity interaction (Human bromodomain panel (DSF assay)) EUB0000233b EP300
[3] = system: Phosphatidylinositol 4,5-bisphosphate 3-kinase catalytic subunit alpha isoform (Homo sapiens), P42336 [H1047L]; conditions: at 10 µM
[4] = molecular target: T2, Histone-arginine methyltransferase CARM1 (Homo sapiens) (UniProt Q86X55); conditions: at 10 µM
T2 sequence (whole entry): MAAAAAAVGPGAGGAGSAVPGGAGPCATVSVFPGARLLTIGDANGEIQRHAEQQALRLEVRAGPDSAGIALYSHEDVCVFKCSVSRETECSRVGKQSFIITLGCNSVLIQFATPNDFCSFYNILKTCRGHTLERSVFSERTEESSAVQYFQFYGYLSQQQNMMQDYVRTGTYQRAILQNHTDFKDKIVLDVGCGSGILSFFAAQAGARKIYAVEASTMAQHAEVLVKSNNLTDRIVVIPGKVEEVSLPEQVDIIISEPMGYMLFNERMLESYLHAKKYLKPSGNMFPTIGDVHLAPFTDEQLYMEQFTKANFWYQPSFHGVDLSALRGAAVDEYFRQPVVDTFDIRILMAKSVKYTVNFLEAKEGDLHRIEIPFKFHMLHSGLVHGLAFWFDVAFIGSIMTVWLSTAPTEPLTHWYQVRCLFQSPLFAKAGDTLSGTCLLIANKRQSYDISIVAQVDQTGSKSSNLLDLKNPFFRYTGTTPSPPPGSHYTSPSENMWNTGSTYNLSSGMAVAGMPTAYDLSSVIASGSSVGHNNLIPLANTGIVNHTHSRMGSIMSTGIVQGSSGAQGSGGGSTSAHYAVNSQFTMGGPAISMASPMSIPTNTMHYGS

[5] = system: Receptor-type tyrosine-protein kinase FLT3 (Homo sapiens), P36888 [UNDEFINED MUTATION]; experiment: Selectivity interaction (KinomeScan (DiscoverX)) EUB0001079a FLT3; conditions: at 1 µM
[6] = molecular target: STE20-like serine/threonine-protein kinase (Homo sapiens, UniProt Q9H2G2); experiment: Selectivity interaction (KinomeScan (DiscoverX)) EUB0000666a SLK; conditions: at 10 µM
[7] = molecular target: Vascular endothelial growth factor receptor 2 (Homo sapiens, UniProt P35968)
[8] = molecular target: Serine/threonine-protein kinase tousled-like 2 (Homo sapiens) (UniProt Q86UE8); experiment: Selectivity interaction (KinomeScan (DiscoverX)) EUB0001619a TLK2; conditions: at 1 µM
[9] = molecular target: Glycogen synthase kinase-3 beta (Homo sapiens, UniProt P49841); experiment: Selectivity interaction (Kinase panel (literature)) EUB0001199aCl GSK3B; conditions: at 1 µM
[10] = molecular target: T3, Dual specificity mitogen-activated protein kinase kinase 6 (Homo sapiens) (UniProt P52564); experiment: Selectivity interaction (SelectScreen profiling (Invitrogen)) EUB0000607a MAP2K6; conditions: at 2 µM
T3 sequence (whole entry): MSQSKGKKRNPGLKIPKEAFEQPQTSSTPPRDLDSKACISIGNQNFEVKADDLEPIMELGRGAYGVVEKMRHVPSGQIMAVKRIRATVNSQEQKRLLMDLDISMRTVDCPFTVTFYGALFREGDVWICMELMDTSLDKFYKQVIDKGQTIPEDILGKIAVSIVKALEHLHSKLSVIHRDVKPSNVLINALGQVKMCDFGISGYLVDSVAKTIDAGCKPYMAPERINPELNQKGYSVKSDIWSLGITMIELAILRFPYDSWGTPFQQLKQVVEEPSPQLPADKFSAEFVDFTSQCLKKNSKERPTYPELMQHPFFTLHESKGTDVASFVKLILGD

[11] = molecular target: T1, Ribosomal protein S6 kinase alpha-1; experiment: Selectivity interaction (ActivX KiNativ screen (kinase selectivity in THP-1 cell lysates)) EUB0000639a RPS6KA1; format: subcellular; conditions: lysate, at 0.01 µM
[12] = molecular target: Cyclin-dependent kinase 14 (Homo sapiens) (UniProt O94921); experiment: Selectivity interaction (ActivX KiNativ screen (kinase selectivity in THP-1 cell lysates)) EUB0000639a CDK14; format: subcellular; conditions: lysate
[13] = molecular target: Serine/threonine-protein kinase Nek7 (Homo sapiens) (UniProt Q8TDX7); experiment: Selectivity interaction (ActivX KiNativ screen (kinase selectivity in THP-1 cell lysates)) EUB0000639a NEK7; format: subcellular; conditions: lysate
[14] = molecular target: Dual specificity protein kinase CLK3 (Homo sapiens, UniProt P49761); conditions: at 10 µM
[15] = molecular target: T4, Rhodopsin kinase GRK1 (Homo sapiens) (UniProt Q15835); experiment: Selectivity interaction (KinomeScan (DiscoverX)) EUB0000092b GRK1; conditions: at 10 µM
T4 sequence (whole entry): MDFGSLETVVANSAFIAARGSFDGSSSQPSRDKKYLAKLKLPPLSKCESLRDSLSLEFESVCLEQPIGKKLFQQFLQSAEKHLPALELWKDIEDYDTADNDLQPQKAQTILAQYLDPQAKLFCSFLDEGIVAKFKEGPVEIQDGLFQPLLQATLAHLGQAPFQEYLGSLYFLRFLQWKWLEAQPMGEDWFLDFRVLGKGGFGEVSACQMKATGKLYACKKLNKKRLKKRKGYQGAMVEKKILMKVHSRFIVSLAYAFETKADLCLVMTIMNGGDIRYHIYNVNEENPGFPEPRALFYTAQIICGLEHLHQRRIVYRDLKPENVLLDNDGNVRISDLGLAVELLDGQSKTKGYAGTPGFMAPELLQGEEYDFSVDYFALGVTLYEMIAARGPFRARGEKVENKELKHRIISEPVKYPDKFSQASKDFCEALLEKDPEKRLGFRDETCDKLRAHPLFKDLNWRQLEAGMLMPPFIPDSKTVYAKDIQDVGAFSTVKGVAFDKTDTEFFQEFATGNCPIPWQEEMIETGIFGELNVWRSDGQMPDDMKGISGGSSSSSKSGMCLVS

Cyclin-dependent kinase 14 (Homo sapiens), sequence (O94921 whole entry): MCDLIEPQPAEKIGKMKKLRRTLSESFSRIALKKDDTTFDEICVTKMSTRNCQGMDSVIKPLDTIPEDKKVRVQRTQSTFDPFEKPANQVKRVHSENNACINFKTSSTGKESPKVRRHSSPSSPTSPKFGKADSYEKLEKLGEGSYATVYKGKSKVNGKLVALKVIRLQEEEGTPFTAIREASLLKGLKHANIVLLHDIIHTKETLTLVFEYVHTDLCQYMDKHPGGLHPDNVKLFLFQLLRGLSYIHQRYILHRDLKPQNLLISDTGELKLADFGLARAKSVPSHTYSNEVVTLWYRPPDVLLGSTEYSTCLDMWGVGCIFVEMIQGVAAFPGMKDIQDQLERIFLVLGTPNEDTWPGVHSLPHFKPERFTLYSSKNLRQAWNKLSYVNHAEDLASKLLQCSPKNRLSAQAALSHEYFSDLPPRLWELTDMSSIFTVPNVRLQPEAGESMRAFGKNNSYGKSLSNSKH
Serine/threonine-protein kinase Nek7 (Homo sapiens), sequence (Q8TDX7 whole entry, looked up): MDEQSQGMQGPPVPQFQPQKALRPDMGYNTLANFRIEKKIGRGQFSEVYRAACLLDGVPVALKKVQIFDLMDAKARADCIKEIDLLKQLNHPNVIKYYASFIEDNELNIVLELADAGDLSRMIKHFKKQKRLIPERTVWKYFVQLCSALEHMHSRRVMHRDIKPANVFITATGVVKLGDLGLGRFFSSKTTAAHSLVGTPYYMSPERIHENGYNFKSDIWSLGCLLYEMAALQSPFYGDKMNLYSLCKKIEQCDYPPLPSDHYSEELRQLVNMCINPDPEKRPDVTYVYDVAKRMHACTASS
T1 sequence (Q15418 whole entry): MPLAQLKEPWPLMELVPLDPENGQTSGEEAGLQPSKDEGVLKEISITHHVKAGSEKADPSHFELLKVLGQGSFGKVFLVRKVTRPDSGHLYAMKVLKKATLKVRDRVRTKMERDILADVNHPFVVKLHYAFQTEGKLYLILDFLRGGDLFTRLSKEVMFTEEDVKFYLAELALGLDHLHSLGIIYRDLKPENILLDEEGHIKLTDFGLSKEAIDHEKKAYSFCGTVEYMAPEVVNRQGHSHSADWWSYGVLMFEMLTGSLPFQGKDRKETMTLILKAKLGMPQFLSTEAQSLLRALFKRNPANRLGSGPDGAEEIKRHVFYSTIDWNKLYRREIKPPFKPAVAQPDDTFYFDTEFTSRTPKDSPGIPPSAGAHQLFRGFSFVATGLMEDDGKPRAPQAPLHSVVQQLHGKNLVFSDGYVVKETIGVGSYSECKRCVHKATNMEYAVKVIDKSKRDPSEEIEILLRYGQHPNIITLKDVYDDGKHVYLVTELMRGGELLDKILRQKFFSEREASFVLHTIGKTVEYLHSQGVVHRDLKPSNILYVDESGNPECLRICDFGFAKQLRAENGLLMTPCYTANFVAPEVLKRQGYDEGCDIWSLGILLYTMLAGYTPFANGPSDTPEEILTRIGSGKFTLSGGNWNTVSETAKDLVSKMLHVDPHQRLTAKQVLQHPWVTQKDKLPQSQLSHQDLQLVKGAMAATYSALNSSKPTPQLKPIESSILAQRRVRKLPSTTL
Serine/threonine-protein kinase tousled-like 2 (Homo sapiens), sequence (Q86UE8 whole entry, looked up): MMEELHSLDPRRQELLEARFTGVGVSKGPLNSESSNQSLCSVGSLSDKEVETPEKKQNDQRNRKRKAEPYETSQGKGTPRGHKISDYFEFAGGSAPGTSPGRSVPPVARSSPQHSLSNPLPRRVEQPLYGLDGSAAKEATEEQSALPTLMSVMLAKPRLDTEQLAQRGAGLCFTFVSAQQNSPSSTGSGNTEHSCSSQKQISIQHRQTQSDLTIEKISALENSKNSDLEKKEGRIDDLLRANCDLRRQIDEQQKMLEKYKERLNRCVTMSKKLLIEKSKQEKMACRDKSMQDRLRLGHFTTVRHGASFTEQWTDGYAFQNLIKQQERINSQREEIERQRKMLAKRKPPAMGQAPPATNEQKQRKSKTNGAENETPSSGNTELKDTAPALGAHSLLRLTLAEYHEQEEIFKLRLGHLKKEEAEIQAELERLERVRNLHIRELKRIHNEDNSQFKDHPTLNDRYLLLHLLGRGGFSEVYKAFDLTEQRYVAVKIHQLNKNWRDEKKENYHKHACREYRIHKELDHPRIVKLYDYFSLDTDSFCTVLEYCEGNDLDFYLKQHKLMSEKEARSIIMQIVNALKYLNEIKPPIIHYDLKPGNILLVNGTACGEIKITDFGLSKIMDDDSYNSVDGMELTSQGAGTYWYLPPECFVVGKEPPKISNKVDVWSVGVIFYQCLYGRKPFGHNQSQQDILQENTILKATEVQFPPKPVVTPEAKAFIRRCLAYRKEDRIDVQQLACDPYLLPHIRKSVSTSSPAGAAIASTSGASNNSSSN
Dual specificity protein kinase CLK3, sequence (P49761 whole entry, looked up): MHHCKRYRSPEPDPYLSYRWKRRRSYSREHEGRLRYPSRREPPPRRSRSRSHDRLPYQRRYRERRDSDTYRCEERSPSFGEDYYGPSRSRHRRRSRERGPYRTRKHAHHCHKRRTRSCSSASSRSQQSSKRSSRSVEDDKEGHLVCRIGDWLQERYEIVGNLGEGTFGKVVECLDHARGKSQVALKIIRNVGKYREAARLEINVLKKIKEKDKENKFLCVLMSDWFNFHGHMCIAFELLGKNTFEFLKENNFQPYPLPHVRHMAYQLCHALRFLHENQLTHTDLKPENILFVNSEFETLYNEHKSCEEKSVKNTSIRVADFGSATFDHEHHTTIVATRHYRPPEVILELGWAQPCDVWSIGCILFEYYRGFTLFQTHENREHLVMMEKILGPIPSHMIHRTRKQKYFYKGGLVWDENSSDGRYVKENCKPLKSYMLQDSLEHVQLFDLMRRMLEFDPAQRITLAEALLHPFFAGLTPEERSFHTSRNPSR
Vascular endothelial growth factor receptor 2, sequence (P35968 whole entry): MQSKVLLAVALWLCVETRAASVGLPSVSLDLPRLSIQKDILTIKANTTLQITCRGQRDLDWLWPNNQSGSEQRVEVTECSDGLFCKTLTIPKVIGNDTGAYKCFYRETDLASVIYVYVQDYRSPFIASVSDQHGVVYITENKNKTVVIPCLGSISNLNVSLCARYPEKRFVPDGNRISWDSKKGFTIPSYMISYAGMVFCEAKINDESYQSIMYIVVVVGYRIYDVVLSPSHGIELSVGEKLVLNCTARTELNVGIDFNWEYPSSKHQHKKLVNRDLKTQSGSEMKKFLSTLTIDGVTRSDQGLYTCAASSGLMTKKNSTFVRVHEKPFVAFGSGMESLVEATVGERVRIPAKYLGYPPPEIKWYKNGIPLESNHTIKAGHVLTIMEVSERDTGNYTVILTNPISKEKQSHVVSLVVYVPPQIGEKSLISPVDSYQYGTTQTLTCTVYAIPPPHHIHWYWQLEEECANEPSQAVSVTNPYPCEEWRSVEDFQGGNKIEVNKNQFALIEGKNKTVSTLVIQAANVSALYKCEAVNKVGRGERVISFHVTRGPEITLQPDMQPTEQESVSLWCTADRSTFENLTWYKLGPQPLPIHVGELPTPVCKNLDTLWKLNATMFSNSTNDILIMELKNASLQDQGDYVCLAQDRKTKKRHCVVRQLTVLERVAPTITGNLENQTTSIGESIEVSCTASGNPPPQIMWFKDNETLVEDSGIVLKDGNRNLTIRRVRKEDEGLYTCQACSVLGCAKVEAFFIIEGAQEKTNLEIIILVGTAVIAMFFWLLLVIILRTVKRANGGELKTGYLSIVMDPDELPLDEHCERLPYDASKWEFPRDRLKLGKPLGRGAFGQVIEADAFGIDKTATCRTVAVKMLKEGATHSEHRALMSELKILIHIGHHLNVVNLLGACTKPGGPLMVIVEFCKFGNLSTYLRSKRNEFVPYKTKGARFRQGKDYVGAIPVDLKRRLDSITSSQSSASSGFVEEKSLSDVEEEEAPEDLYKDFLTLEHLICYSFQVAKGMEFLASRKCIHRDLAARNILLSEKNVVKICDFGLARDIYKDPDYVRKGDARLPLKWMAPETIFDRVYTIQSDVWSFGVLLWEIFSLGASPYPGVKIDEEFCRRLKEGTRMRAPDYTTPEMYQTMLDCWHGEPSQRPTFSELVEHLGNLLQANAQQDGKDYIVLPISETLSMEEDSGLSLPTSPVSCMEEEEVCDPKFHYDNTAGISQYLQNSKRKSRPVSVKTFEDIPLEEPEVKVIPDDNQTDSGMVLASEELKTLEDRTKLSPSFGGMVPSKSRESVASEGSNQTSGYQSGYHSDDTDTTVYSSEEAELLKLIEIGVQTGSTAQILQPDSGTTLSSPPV
Glycogen synthase kinase-3 beta, sequence (P49841 whole entry, looked up): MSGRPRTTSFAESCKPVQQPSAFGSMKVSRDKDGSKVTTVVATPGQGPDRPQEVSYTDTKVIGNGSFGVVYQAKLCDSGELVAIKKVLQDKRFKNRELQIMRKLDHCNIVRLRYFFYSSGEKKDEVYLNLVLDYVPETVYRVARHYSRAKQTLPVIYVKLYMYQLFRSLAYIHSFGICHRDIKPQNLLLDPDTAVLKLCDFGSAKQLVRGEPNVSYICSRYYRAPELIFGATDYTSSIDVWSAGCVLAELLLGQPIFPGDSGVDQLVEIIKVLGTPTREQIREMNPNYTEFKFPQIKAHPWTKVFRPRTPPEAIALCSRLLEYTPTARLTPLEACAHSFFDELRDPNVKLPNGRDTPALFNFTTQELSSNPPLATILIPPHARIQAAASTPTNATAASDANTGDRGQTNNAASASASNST

Q: How did the % of engagement [1] turn out when `C=CC(=O)Nc1ccc(C(=O)Nc2[nH]nc3c2CN(C(=O)N[C@H](CN(C)C)c2ccccc2)C3(C)C)cc1` was run?
A: 14.4%

Q: With `CN(C)CCCOc1ccc(-c2cc(NCCCn3cccn3)nc(S(C)(=O)=O)n2)cc1` as the compound, how does the dTM [2] read?
A: < 2 K

Q: Which % of control [3] does the source give for `COCC(=O)NC/C=C/c1ccc2ncnc(Nc3ccc(Oc4ccc(C)nc4)c(C)c3)c2c1` [CP-724714] here?
A: 100%

Q: How did the % activity [4] turn out when `CNCCN1CCC(c2cc(CN(C)C(=O)c3cccc(Oc4ccccc4)c3)ccn2)CC1` was run?
A: 1%

Q: With `Nc1cnc(N2CCc3cc(S(=O)(=O)Nc4c(F)cc(Cl)cc4F)cc(N4CCCC4=O)c32)nc1` [TP-020n] as the compound, how does the % of control [5] read?
A: 96%

Q: `O=C(NOC[C@H](O)CO)c1ccc(F)c(F)c1Nc1ccc(I)cc1F` was tested. Which % of control [6] did it give?
A: 93%

Q: `CCc1cccc(CC)c1NC(=O)c1nn(C)c2c1CCc1cnc(Nc3ccc(C(=O)NC4CCN(C)CC4)cc3OC(F)(F)F)nc1-2` was tested. Which IC50 [7] did it give?
A: > 10 µM

Q: For `N#Cc1cccc(-c2c[nH]c3ncnc(N4CCOCC4)c23)c1`, which % of control [8] is on record?
A: 93%

Q: For `CN1Cc2nccc(-c3cn(C)nc3-c3ccc(F)cc3)c2C1=O`, which % of inhibition [9] is on record?
A: 1%

Q: With `CNC(=O)Nc1ccc(-c2nc(N3CC4CCC(C3)O4)c3cnn(C4CCC5(CC4)OCCO5)c3n2)cc1` as the compound, how does the % of inhibition [10] read?
A: 8%

Q: How did the % of inhibition [11] turn out when `CC[C@@H]1[C@H](F)C(=O)N[C@@H]1COc1nccc2cc(C(N)=O)c(OC)cc12` [ZIMLOVISERTIB] was run?
A: 3.6%

Q: And the % of inhibition ([12]; at 0.01 µM)?
A: -6.2%

Q: And the % of inhibition ([12]; at 0.04 µM)?
A: 2.9%

Q: And the % of inhibition ([12]; at 0.2 µM)?
A: -6.5%

Q: And the % of inhibition ([12]; at 1 µM)?
A: 12.2%

Q: What about the % of inhibition ([12]; at 5 µM) of the same compound?
A: 16.4%

Q: What about the % of inhibition ([13]; at 0.01 µM) of the same compound?
A: -4%

Q: What about the % of inhibition ([13]; at 0.04 µM) of the same compound?
A: -1.1%

Q: And the % of inhibition ([13]; at 0.2 µM)?
A: -1.6%

Q: And the % of inhibition ([13]; at 1 µM)?
A: 10.8%

Q: What about the % of inhibition ([13]; at 5 µM) of the same compound?
A: -20%

Q: For `CCN(CC)CCCCNc1ncc2cc(-c3cc(OC)cc(OC)c3)c(NC(=O)NC(C)(C)C)nc2n1`, which % of control [14] is on record?
A: 100%

Q: With `CCC(=O)N1CCN(c2ccc(-n3c(=O)ccc4cnc5ccc(-c6cnc7ccccc7c6)cc5c43)cc2C(F)(F)F)CC1` as the compound, how does the % of control [15] read?
A: 99%
